The supplement of paper PMC10307832

Tests used:
Assay in all cases: relative viability (nuclei count vs DMSO), 5 days (fraction); higher = more cells survive
[1] = compound: CCN1CCC(CC1)N2C=C(N=N2)CNC3=CC4=C(C(=CN=C4C(=C3)Cl)C#N)NC5=CC(=C(C=C5)F)Cl [KIN001-266] + CCNC(=O)c1noc(-c2cc(C(C)C)c(O)cc2O)c1-c1ccc(CN2CCOCC2)cc1 [Luminespib] (partner 0.01 µM)
Outline: (§1)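 For relative viability, nuclei counts in treated wells were divided by those in vehicle wells. Lung cancer cell lines had been pin-tool dosed in 1536-well plates the day after seeding and cultured for 5 days, then fixed and stained in one step (final 0.05% Triton X-100, 1% formaldehyde, 1 ug/ml Hoechst) and imaged at 4×. Doses were one drug alone or a fixed anchor-drug dose plus five library-drug doses (not always all listed) in √10 steps, and values are duplicate-plate medians.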

[2] = compound: CCN1CCC(CC1)N2C=C(N=N2)CNC3=CC4=C(C(=CN=C4C(=C3)Cl)C#N)NC5=CC(=C(C=C5)F)Cl [KIN001-266] + Cc1nc(Nc2ncc(C(=O)Nc3c(C)cccc3Cl)s2)cc(N2CCN(CCO)CC2)n1 [Dasatinib] (partner 0.075 µM)
Outline: as §1

[3] = compound: CCN1CCC(CC1)N2C=C(N=N2)CNC3=CC4=C(C(=CN=C4C(=C3)Cl)C#N)NC5=CC(=C(C=C5)F)Cl [KIN001-266] + CC(C)C[C@H](NC(=O)[C@H](Cc1ccccc1)NC(=O)c1cnccn1)B(O)O [Bortezomib] (partner 0.002 µM)
Outline: as §1

[4] = compound: CCN1CCC(CC1)N2C=C(N=N2)CNC3=CC4=C(C(=CN=C4C(=C3)Cl)C#N)NC5=CC(=C(C=C5)F)Cl [KIN001-266] + CC1(C)CCC(c2ccc(Cl)cc2)=C(CN2CCN(c3ccc(C(=O)NS(=O)(=O)c4ccc(N[C@H](CCN5CCOCC5)CSc5ccccc5)c(S(=O)(=O)C(F)(F)F)c4)cc3)CC2)C1 [Navitoclax] (partner 0.5 µM)
Outline: as §1

| Cell Line | relative viability ([1]; first compound 0.08 µM) | relative viability ([1]; first compound 0.253 µM) | relative viability ([1]; first compound 0.8 µM) | relative viability ([1]; first compound 2.53 µM) | relative viability ([1]; first compound 8 µM) | relative viability ([2]; first compound 0.08 µM) | relative viability ([2]; first compound 0.253 µM) | relative viability ([2]; first compound 0.8 µM) | relative viability ([2]; first compound 2.53 µM) | relative viability ([2]; first compound 8 µM) | relative viability ([3]; first compound 0.08 µM) | relative viability ([3]; first compound 0.253 µM) | relative viability ([3]; first compound 0.8 µM) | relative viability ([3]; first compound 2.53 µM) | relative viability ([3]; first compound 8 µM) | relative viability ([4]; first compound 0.08 µM) | relative viability ([4]; first compound 0.253 µM) | relative viability ([4]; first compound 0.8 µM) | relative viability ([4]; first compound 2.53 µM) | relative viability ([4]; first compound 8 µM) |
| --- | --- | --- | --- | --- | --- | --- | --- | --- | --- | --- | --- | --- | --- | --- | --- | --- | --- | --- | --- | --- |
| LOU-NH91 | 0.35 | 0.312 | 0.286 | 0.337 | 0.391 | 0.553 | 0.531 | 0.39 | 0.516 | 0.435 | 0.499 | 0.497 | 0.428 | 0.513 | 0.443 | 0.761 | 0.646 | 0.47 | 0.609 | 0.55 |
| LU99A | 0.265 | 0.216 | 0.217 | 0.243 | 0.228 | 0.726 | 0.514 | 0.505 | 0.428 | 0.425 | 1.31 | 1.17 | 1.11 | 1.02 | 0.982 | 0.917 | 0.749 | 0.735 | 0.752 | 0.569 |
| LXF-289 | 0.633 | 0.72 | 0.72 | 0.705 | 0.794 | 0.24 | 0.193 | 0.232 | 0.261 | 0.203 | 0.954 | 0.987 | 0.95 | 0.972 | 1.03 | 0.957 | 0.952 | 0.929 | 0.952 | 0.925 |
| NCI-H23 | 0.201 | 0.185 | 0.182 | 0.239 | 0.226 | 0.867 | 0.86 | 0.917 | 0.683 | 0.85 | 1.14 | 1.1 | 1.04 | 0.916 | 0.642 | 0.835 | 0.876 | 0.762 | 0.962 | 0.719 |
| NCI-H322M | 0.86 | 0.576 | 1.05 | 0.83 | 0.926 | 0.272 | 0.27 | 0.265 | 0.238 | 0.242 | 1.16 | 1.43 | 1.34 | 1.23 | 1.18 | 1.19 | 1.3 | 1.24 | 1.05 | 1.18 |
| NCI-H441 | 0.32 | 0.354 | 0.328 | 0.286 | 0.302 | 0.655 | 0.836 | 0.64 | 0.658 | 0.362 | 0.603 | 0.811 | 0.478 | 0.457 | 0.554 | 0.688 | 0.635 | 0.483 | 0.623 | 0.531 |
| NCI-H460 | 0.0348 | 0.0385 | 0.0335 | 0.0269 | 0.0404 | 0.659 | 0.513 | 0.531 | 0.45 | 0.496 | 1.01 | 1.18 | 1.16 | 0.988 | 1.06 | 1.16 | 1.2 | 1.15 | 1.03 | 1.07 |
| NCI-H520 | 0.246 | 0.289 | 0.228 | 0.192 | 0.22 | 0.209 | 0.208 | 0.187 | 0.168 | 0.194 | 0.633 | 0.677 | 0.535 | 0.544 | 0.675 | 1.11 | 1.05 | 1.16 | 0.926 | 0.967 |
| NCI-H596 | 0.922 | 1.03 | 1.08 | 1.03 | 0.905 | 0.607 | 0.586 | 0.539 | 0.583 | 0.63 | 0.919 | 1.17 | 1.05 | 1.04 | 0.947 | 1.02 | 0.857 | 0.92 | 1 | 0.785 |
| NCI-H647 | 0.162 | 0.138 | 0.419 | 0.179 | 0.153 | 0.249 | 0.268 | 0.181 | 0.152 | 0.15 | 1 | 1.03 | 1.14 | 1.07 | 0.935 | 1.07 | 1.28 | 1.19 | 1.15 | 1.13 |
| NCI-H727 | 0.359 | 0.316 | 0.346 | 0.246 | 0.514 | 0.473 | 0.468 | 0.323 | 0.342 | 0.261 | 0.843 | 0.893 | 0.889 | 0.864 | 0.514 | 0.337 | 0.557 | 0.484 | 0.577 | 0.183 |
| NCI-H838 | 0.27 | 0.284 | 0.328 | 0.2 | 0.186 | 0.275 | 0.267 | 0.338 | 0.26 | 0.282 | 0.831 | 0.737 | 0.85 | 0.719 | 0.56 | 1.09 | 1.19 | 1.22 | 1.08 | 0.867 |
| NCI-H1355 | 0.741 | 0.642 | 0.811 | 0.691 | 0.722 | 0.734 | 0.7 | 0.663 | 0.691 | 0.662 | 1.23 | 1.23 | 1.1 | 1.26 | 1.18 | 0.981 | 0.955 | 0.963 | 0.873 | 0.812 |
| NCI-H1437 | 1.08 | 1.13 | 1.1 | 1.09 | 0.854 | 0.413 | 0.421 | 0.346 | 0.369 | 0.249 | 0.534 | 0.435 | 0.514 | 0.493 | 0.447 | 1.09 | 1.11 | 1.08 | 1.12 | 0.911 |
| NCI-H1650 | 0.193 | 0.207 | 0.196 | 0.177 | 0.203 | 0.313 | 0.356 | 0.238 | 0.288 | 0.224 | 0.241 | 0.203 | 0.191 | 0.214 | 0.19 | 1.09 | 1.1 | 1.23 | 1.15 | 0.985 |
